Patent US8058242B2, “Chimeric proteins with natriuretic activity” (The University of Queensland, priority 2004, dated 2011)

What was measured:
conscious rabbits = assay: Blood pressure and heart rate in conscious rabbits, intravenous infusion dose-response (Example 8); parameters: Systolic BP, mean difference / Diastolic BP, mean difference / Mean BP, mean difference / HR, mean difference: dose or concentration left out as unconfirmed; details: for Diastolic BP, mean difference from control / HR, mean difference from control / Mean BP, mean difference from control / Systolic BP, mean difference from control: 45 min
Plasmin = target: T1, Plasmin (Homo sapiens, UniProt P00747); assay: Stability to enzymatic degradation by plasmin (Examples 7, 16); format: in vitro ADME; details: plasmin, 37° C.
T1 construct: with 500 ng Endopeptidase (NEP) or 10 μg Plasmin
Description: The incubation buffer contained 100 mM Tris/HCl and 150 mM NaCl and the pH was adjusted to 7.2-7.4. In each assay, 100 μl of peptide [500 μM] was incubated with 300 μl buffer (with 500 ng Endopeptidase (NEP) or 10 μg Plasmin) at 37° C. 50 μl aliquots were taken at times 5 min, 30 min, 60 min, 90 min, 180 min and 24 h. The reaction was quenched by heating to 100° C. for 4 min and the remaining peptide concentrations measured by RP-HPLC. Note that the levels of Plasmin required to degrade these peptides was several thousands time the levels present in human plasma.
The stability of TDT and was investigated using the same enzymatic degradation assays (NEP, plasmin, pepsin) disclosed in Example 7. […] It is also evident that the increased NEP stability cannot be explained by the length of the tail region alone as the NEP cleavage site residues at the N-terminal end of the loop region.

[1] = target: T2, Natriuretic Peptide Receptor-A (NPR-A) signaling in MDCK cells (Canis lupus familiaris, UniProt A0A8I3MHU3); format: cell-based, canine; details: stimulation of cGMP accumulation in MDCK cells
T2 sequence (A0A8I3MHU3 32-1060): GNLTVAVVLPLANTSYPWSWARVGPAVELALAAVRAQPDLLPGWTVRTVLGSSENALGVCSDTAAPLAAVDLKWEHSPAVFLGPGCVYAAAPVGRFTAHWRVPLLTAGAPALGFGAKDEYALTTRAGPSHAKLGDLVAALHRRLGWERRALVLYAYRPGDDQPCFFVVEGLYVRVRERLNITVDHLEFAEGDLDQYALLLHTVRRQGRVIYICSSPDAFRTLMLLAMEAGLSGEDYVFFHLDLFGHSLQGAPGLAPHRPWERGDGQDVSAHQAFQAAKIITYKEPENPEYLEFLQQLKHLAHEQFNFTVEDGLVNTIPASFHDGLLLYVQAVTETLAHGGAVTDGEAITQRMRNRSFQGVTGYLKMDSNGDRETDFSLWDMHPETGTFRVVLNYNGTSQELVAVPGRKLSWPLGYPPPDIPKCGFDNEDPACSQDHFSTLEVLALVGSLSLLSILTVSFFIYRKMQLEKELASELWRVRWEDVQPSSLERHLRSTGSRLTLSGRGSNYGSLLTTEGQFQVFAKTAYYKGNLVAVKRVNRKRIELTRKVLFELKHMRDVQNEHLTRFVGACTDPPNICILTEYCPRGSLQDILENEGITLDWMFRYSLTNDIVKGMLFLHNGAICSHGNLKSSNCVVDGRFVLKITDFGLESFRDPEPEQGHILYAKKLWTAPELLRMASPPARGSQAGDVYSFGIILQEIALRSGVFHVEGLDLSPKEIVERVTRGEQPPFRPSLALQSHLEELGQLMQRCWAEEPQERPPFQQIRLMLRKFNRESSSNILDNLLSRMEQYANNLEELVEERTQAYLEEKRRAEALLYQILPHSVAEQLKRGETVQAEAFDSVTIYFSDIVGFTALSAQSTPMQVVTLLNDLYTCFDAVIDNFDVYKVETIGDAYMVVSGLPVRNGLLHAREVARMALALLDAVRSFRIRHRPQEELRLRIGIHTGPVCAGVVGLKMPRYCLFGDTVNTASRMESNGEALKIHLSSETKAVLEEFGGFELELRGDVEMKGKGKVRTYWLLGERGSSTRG

[2] = test system: endothelium-denuded aortic rings (GC-A mediated); assay: Aortic ring relaxation, endothelium-denuded rings pre-contracted with 40 mM KCl (Example 3); parameters: species or system rat; details: endothelium-denuded rat aortas pre-contracted with 40 mM KCl; peptide 0.1 μM
Description: (§1) Male Sprague Dawley rats were killed and the descending thoracic aorta rapidly removed and flushed with physiological solution. After being cleared of adhering fat and connective tissue, 5 mm rings were mounted under 10 g resting tension, between two stainless steel hooks, in organ baths (37° C.) containing carbogenated (95% O2 and 5% CO2) physiological salt solution of the following composition (mM): NaCl, 118.4; NaHCO3, 25; glucose, 11; KCl, 4.7; MgSO4, 1.2; KH2PO4, 1.2 and CaCl2, 2.5. The lower hook was attached to a tissue holder and the upper hook to a force displacement transducer (Grass FTO3). Where indicated endothelial cells were removed by gentle rubbing of the intimal surface with a wire. To confirm the presence or absence of endothelial cells, tissues were precontracted with a sub-maximal concentration of phenylephrine (0.3 μM) and the response to acetylcholine (ACh, 10 μM) observed. Ach-induced relaxation greater than 80% of maximum indicated the presence of endothelium; whereas Ach-induced relaxation less than 10% indicated the absence of endothelium. Ring preparations under resting tension were conditioned by two contraction/relaxation cycles with 40 mM KCl, contracted by a third application of 40 mM KCl and then relaxed with different doses of the venom peptides. Responses were expressed as a percentage relaxation of the precontraction by KCl.

[3] = test system: endothelium-intact aortic rings (NPR-C mediated); assay: Aortic ring relaxation, endothelium-intact rings pre-contracted with 40 mM KCl (Example 3); parameters: species or system rat; details: endothelium-intact rat aortas pre-contracted with 40 mM KCl; peptide 0.1 μM
Description: as §1

[4] = Table 9B, average of doses 1, 2, 4
[5] = average of the 3 doses 1.0, 2.0, 4.0 μg/kg/min

T1 sequence (P00747 97-580 partner limits assumed, species assumed): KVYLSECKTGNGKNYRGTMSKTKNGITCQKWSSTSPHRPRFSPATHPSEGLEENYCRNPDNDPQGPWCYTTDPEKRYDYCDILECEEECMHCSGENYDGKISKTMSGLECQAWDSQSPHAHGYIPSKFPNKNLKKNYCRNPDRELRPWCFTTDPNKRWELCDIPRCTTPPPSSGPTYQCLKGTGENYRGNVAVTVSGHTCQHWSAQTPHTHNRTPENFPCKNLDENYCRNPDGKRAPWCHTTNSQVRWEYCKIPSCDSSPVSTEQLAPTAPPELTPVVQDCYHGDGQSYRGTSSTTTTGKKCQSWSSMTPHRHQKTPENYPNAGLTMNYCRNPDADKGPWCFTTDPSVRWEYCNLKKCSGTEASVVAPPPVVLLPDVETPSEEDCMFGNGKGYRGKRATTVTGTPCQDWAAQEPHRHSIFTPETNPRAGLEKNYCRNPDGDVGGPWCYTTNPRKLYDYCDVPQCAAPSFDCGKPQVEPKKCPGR
T1 sequence (P00747 581-810 limits assumed, species assumed): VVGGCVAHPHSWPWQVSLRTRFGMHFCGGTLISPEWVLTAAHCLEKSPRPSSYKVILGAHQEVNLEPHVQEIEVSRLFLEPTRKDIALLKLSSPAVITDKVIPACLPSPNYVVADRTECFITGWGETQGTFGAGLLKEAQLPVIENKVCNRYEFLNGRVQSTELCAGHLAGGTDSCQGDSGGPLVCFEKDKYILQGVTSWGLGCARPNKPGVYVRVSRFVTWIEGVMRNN

## CC[C@H](C)[C@@H]1NC(=O)[C@H](CCCNC(=N)N)NC(=O)[C@H](CC(=O)O)NC(=O)[C@H](CCSC)NC(=O)[C@H](CCCNC(=N)N)NC(=O)CNC(=O)CNC(=O)[C@H](Cc2ccccc2)NC(=O)[C@@H](NC(=O)[C@H](CO)NC(=O)[C@H](CO)NC(=O)[C@H](CCCNC(=N)N)NC(=O)[C@H](CCCNC(=N)N)NC(=O)[C@H](CC(C)C)NC(=O)[C@@H](N)CO)CSSC[C@@H](C(=O)N[C@@H](CC(N)=O)C(=O)N[C@@H](CO)C(=O)N[C@@H](Cc2ccccc2)C(=O)N[C@@H](CCCNC(=N)N)C(=O)N[C@@H](Cc2ccc(O)cc2)C(=O)O)NC(=O)CNC(=O)[C@H](CC(C)C)NC(=O)CNC(=O)[C@H](CO)NC(=O)[C@H](CCC(N)=O)NC(=O)[C@H](C)NC(=O)CNC1=O [hANP, reference compound]
Conscious rabbits; Table 9B, Dose 1
  Diastolic BP, mean difference: −9.7 mmHg
  HR, mean difference: 17 bpm
  Mean BP, mean difference: −13.1 mmHg
  Systolic BP, mean difference: −10.6 mmHg
Conscious rabbits; Table 9B, Dose 2
  Diastolic BP, mean difference: −12.3 mmHg
  HR, mean difference: 19 bpm
  Mean BP, mean difference: −15.7 mmHg
  Systolic BP, mean difference: −13.0 mmHg
Conscious rabbits; Table 9B, Dose 4
  Diastolic BP, mean difference: −14.4 mmHg
  HR, mean difference: 9 bpm
  Mean BP, mean difference: −18.5 mmHg
  Systolic BP, mean difference: −14.5 mmHg
Conscious rabbits; [4]
  Diastolic BP, Average Response SED: −12.1 ± 0.8 mmHg
  HR, Average Response SED: 15 ± 3 bpm
  Systolic BP, Average Response SED: −12.7 ± 0.9 mmHg
Conscious rabbits; after 1 hour recovery period, Table 10A
  Recovery (MAP): 59.2 mm Hg
Conscious rabbits; after 1 hour recovery period, Table 10A, listed as WT-hANP
  Recovery Delta SED (MAP): 5.0±1.2 mm Hg
Conscious rabbits; [5]
  Diastolic BP, Average Response SED: −12.1 ± 0.8 mmHg
  HR, Average Response SED: 15.1 ± 3.2 bpm
  Systolic BP, Average Response SED: −12.7 ± 0.9 mmHg
Conscious rabbits; highest dose, Table 10A
  MAP at final dose: 54.2 mm Hg
Conscious rabbits; highest dose, Table 10A, groups 1, 2A and 3
  Treatment Effect, change of mean blood pressure during the infusion: −18.5 mm Hg
Conscious rabbits; i.v. infusion 1.0 μg/kg/min
  Diastolic BP, mean difference from control: −9.7 mmHg
  HR, mean difference from control: 17.1 bpm
  Mean BP, mean difference from control: −13.1 mmHg
  Systolic BP, mean difference from control: −10.6 mmHg
Conscious rabbits; i.v. infusion 2.0 μg/kg/min
  Diastolic BP, mean difference from control: −12.3 mmHg
  HR, mean difference from control: 19.0 bpm
  Mean BP, mean difference from control: −15.7 mmHg
  Systolic BP, mean difference from control: −13.0 mmHg
Conscious rabbits; i.v. infusion 4.0 μg/kg/min
  Diastolic BP, mean difference from control: −14.4 mmHg
  HR, mean difference from control: 9.0 bpm
  Mean BP, mean difference from control: −18.5 mmHg
  Systolic BP, mean difference from control: −14.5 mmHg
Plasmin; plasmin in Tris/HCl-NaCl buffer, read-out: HalfLife in plasmin
  half-life at 125 μM: 2.03 min
Plasmin
  K (one phase exponential decay, best fit values): 0.3413
  PLATEAU (one phase exponential decay, best fit values): 0.04207
  SPAN (one phase exponential decay, best fit values): 0.9579
[1]
  −Log10 EC50 (pEC50) ± Standard Error: 8.792 ± 0.2718
[1]; read-out: EC50 (M) ± Standard Error
  EC50: 1.64e-08 M
[2]
  percentage relaxation of the precontraction by KCl: ~100%
[3]
  percentage relaxation of the precontraction by KCl: ~100%
